Measurements from ChEMBL document CHEMBL5042492, “Noncovalent CDK12/13 dual inhibitors-based PROTACs degrade CDK12-Cyclin K complex and induce synthetic lethality with PARP inhibitor” (Eur J Med Chem, 2022).
Activity calls are given as the source filed them. The calls are words filed in the database; no cut-off is given here.

Experiments:
MDA-MB-231 [1] = experiment: Antiproliferative activity against human MDA-MB-231 cells at 1 uM for 10 days by SRB staining based clone formation assay relative to control; assay type: functional; settings: MDA-MB-231, 240 h, time 10 day
MDA-MB-231 [2] = experiment: Antiproliferative activity against human MDA-MB-231 cells at 3 uM for 10 days by SRB staining based clone formation assay relative to control; assay type: functional; settings: MDA-MB-231, 240 h, time 10 day
[3] = molecular target: T1, Protein cereblon/Cyclin-K/Cyclin-dependent kinase 12 (Homo sapiens, UniProt O75909+Q9NYV4+Q96SW2); experiment: Protac activity at human CRBN/CDK12/CycK in human MDA-MB-231 cells assessed as degradation of CDK12 at 3 uM measured after 24 hrs by Western blotting assay; assay type: cell-based
[4] = molecular target: T1, Protein cereblon/Cyclin-K/Cyclin-dependent kinase 12; experiment: Protac activity at human CRBN/CDK12/CycK in human Bel-7402 cells assessed as degradation of CDK12 at 3 uM measured after 24 hrs by Western blotting assay; assay type: cell-based

T1 sequence (O75909 whole entry, looked up): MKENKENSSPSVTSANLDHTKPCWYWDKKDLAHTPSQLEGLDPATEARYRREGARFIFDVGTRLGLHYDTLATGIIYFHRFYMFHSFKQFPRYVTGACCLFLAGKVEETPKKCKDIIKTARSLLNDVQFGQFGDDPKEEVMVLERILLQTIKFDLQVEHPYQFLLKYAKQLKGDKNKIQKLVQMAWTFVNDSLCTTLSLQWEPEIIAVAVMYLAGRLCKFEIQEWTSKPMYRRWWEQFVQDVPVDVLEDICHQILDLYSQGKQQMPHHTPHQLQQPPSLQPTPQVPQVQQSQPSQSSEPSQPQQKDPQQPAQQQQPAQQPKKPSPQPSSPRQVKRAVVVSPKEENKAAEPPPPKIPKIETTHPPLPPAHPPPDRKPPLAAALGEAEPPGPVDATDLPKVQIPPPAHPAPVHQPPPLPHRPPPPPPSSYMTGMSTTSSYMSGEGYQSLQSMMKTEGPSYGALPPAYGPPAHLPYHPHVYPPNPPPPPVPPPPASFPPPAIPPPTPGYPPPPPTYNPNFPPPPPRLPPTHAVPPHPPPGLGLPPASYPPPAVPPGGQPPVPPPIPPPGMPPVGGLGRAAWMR
T1 sequence (Q96SW2 whole entry, looked up): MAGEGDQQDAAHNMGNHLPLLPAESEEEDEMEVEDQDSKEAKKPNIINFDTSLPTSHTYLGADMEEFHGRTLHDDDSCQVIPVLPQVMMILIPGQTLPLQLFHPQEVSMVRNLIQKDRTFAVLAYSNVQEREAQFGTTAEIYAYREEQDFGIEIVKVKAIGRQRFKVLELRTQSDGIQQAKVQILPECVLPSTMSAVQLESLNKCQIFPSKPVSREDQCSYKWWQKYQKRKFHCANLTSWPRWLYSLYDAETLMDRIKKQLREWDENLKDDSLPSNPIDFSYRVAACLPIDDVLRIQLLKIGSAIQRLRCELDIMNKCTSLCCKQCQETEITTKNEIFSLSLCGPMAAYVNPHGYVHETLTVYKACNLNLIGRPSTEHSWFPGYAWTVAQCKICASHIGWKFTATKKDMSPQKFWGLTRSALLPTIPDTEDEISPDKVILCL
T1 sequence (Q9NYV4 whole entry, looked up): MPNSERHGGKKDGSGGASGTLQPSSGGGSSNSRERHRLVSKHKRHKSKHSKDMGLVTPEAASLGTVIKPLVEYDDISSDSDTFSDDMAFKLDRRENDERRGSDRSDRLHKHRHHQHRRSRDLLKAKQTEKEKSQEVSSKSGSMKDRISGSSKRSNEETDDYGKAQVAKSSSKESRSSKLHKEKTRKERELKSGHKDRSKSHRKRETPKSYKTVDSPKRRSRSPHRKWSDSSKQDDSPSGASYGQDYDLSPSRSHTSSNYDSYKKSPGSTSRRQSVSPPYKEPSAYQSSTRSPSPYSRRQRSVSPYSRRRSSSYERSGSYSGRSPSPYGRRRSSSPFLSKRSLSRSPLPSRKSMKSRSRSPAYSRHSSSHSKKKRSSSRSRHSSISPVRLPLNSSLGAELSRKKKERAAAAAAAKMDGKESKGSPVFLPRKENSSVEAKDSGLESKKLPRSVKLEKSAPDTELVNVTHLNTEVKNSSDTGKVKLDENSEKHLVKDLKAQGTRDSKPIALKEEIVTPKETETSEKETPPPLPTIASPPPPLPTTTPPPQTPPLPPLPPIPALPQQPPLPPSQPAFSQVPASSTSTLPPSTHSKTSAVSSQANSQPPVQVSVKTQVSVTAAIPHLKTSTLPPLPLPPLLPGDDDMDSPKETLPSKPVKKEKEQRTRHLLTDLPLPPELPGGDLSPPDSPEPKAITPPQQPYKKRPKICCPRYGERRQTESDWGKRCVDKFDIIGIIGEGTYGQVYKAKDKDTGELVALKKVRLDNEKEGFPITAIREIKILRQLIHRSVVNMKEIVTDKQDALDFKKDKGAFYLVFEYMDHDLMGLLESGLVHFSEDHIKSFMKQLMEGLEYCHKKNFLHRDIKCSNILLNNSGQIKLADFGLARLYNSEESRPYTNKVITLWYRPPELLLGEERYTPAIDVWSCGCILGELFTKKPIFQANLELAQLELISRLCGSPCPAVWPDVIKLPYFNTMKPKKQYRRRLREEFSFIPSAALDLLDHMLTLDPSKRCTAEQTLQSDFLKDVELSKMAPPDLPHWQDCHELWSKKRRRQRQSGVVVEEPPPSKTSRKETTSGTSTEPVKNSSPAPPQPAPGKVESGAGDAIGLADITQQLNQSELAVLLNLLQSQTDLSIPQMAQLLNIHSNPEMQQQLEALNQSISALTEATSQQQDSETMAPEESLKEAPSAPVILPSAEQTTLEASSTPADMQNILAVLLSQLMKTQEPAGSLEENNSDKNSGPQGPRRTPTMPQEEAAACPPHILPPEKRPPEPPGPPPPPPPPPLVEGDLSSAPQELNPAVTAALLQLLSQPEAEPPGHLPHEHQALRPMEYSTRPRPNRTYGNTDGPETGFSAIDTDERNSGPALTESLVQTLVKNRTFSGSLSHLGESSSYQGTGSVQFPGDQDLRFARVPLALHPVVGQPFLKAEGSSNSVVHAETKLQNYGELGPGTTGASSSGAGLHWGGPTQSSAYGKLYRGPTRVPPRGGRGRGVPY

Activity [3] | Activity [4] | SMILES | inhibition at 1 µM (MDA-MB-231 [1]) | inhibition at 3 µM (MDA-MB-231 [2])
 |  | O=C(c1cc(Cc2n[nH]c(=O)c3ccccc23)ccc1F)N1CCN(C(=O)C2CC2)CC1 [OLAPARIB] | 12.4% | 98%
Active | Active | CC(C)n1cnc2c(NCc3nc4cc(F)c(NCCCCCCCCCCNC(=O)COc5cccc6c5C(=O)N(C5CCC(=O)NC5=O)C6=O)cc4[nH]3)nc(N3CCOCC3)nc21 (centres undefined) |  | 
